Measured values reported in ChEMBL document CHEMBL1201862, “PubChem BioAssay data set” (2004).
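Dose response: 5 concentrations. Exposure: 48 h. Format: 96-well plates. Endpoint: linear interpolation; highest concentration if not reached. Abbreviation: GI50, concentration required for 50% inhibition of growth.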 The source made the active and inactive calls. No stated cut-off is given here; in the data, active = GI50 up to about 1.1 µM and inactive = higher.

What was measured:
Assay in all cases: NCI-60 cell line screen, 48 h
786-0 = test system: 786-0
A498 = test system: A498
CCRF-CEM = test system: CCRF-CEM
DMS-273 = test system: DMS-273
HCT-15 = test system: HCT-15
HT-29 = test system: HT-29
IGROV-1 = test system: IGROV-1
M14 = test system: M14
Malme-3M = test system: Malme-3M
OVCAR-4 = test system: OVCAR-4
OVCAR-8 = test system: OVCAR-8
RXF 393 = test system: RXF 393
SK-OV-3 = test system: SK-OV-3
SN12C = test system: SN12C
U-251 = test system: U-251
UO-31 = test system: UO-31
OVCAR-3 = test system: OVCAR-3
TK-10 = test system: TK-10
MDA-MB-231 = test system: MDA-MB-231
MDA-MB-435 = test system: MDA-MB-435

Compound | GI50 (786-0) | GI50 (A498) | GI50 (CCRF-CEM) | GI50 (DMS-273) | GI50 (HCT-15) | GI50 (HT-29) | GI50 (IGROV-1) | GI50 (M14) | GI50 (Malme-3M) | GI50 (OVCAR-4) | GI50 (OVCAR-8) | GI50 (RXF 393) | GI50 (SK-OV-3) | GI50 (SN12C) | GI50 (U-251) | GI50 (UO-31) | GI50 (OVCAR-3) | GI50 (TK-10) | GI50 (MDA-MB-231) | GI50 (MDA-MB-435)
O=C1c2ccccc2N2OC3(N4CCCC4)CCCC3C12c1ccccc1 (stereo not given) | > 100 µM (inactive) | > 100 µM (inactive) | > 100 µM (inactive) | 67.6 µM (inactive) | > 100 µM | > 100 µM (inactive) | > 100 µM (inactive) | > 100 µM (inactive) | > 100 µM (inactive) | 29.6 µM (inactive) | > 100 µM (inactive) | > 100 µM (inactive) | > 100 µM (inactive) | > 100 µM (inactive) | > 100 µM (inactive) | > 100 µM (inactive) | – | – | – | –
CC1CC2C(=O)N(c3ccccc3)C(=O)C2c2[nH]c3ccccc3c21 (stereo not given) | 50.2 µM (inactive) | > 100 µM (inactive) | 35.6 µM (inactive) | 79.4 µM (inactive) | > 100 µM | > 100 µM (inactive) | > 100 µM (inactive) | 78.9 µM (inactive) | 46.1 µM (inactive) | 41.8 µM (inactive) | 59.3 µM (inactive) | 30.3 µM (inactive) | 14.2 µM (inactive) | > 100 µM (inactive) | 38.8 µM (inactive) | – | 48.2 µM (inactive) | 85.7 µM (inactive) | – | –
Sc1nnc(-c2cccnc2)[nH]1 | > 100 µM (inactive) | > 100 µM (inactive) | > 100 µM (inactive) | > 100 µM (inactive) | > 100 µM | > 100 µM (inactive) | – | > 100 µM (inactive) | > 100 µM (inactive) | – | – | > 100 µM (inactive) | > 100 µM (inactive) | > 100 µM (inactive) | > 100 µM (inactive) | – | – | > 100 µM (inactive) | – | –
Cn1c(=O)c2c(ncn2CCCCn2ccnc2[N+](=O)[O-])n(C)c1=O | > 100 µM (inactive) | – | > 100 µM (inactive) | > 100 µM (inactive) | > 100 µM | > 100 µM (inactive) | > 100 µM (inactive) | > 100 µM (inactive) | > 100 µM (inactive) | > 100 µM (inactive) | > 100 µM (inactive) | > 100 µM (inactive) | – | > 100 µM (inactive) | > 100 µM (inactive) | > 100 µM (inactive) | > 100 µM (inactive) | > 100 µM (inactive) | – | –
COC(=O)c1c(CC#N)cccc1CC#N | > 100 µM (inactive) | – | > 100 µM (inactive) | > 100 µM (inactive) | > 100 µM | > 100 µM (inactive) | > 100 µM (inactive) | > 100 µM (inactive) | > 100 µM (inactive) | > 100 µM (inactive) | > 100 µM (inactive) | > 100 µM (inactive) | > 100 µM (inactive) | > 100 µM (inactive) | > 100 µM (inactive) | > 100 µM (inactive) | > 100 µM (inactive) | – | – | –
COc1ccc(-c2[nH]c3ccccc3c2CCNS(=O)(=O)c2ccc(C)cc2)cc1 | > 10 µM (inactive) | > 10 µM (inactive) | 3.72 µM (inactive) | 7.48 µM (inactive) | 7.6 µM | 6.35 µM (inactive) | > 6.34 µM (inactive) | > 10 µM (inactive) | > 10 µM (inactive) | – | > 7.91 µM (inactive) | > 10 µM (inactive) | > 10 µM (inactive) | > 10 µM (inactive) | 8.09 µM (inactive) | 4.92 µM (inactive) | 7.23 µM (inactive) | > 7.8 µM (inactive) | – | –
C=CC(=O)NCCSCCCOC1(C(=O)O)CC(O)C(NC(C)=O)C(C(O)C(O)CO)O1 (stereo not given) | > 100 µM (inactive) | – | – | > 100 µM (inactive) | > 100 µM | > 100 µM (inactive) | > 100 µM (inactive) | > 100 µM (inactive) | > 100 µM (inactive) | > 100 µM (inactive) | > 100 µM (inactive) | > 100 µM (inactive) | > 100 µM (inactive) | > 100 µM (inactive) | > 100 µM (inactive) | > 100 µM (inactive) | > 100 µM (inactive) | > 100 µM (inactive) | – | –
N#C/C(=C1\OC(=N)C(c2ccc(Cl)cc2)=C1O)c1ccc(Cl)cc1 | 16 µM (inactive) | 17.2 µM (inactive) | 12.8 µM (inactive) | 13.5 µM (inactive) | – | 18.9 µM (inactive) | 15.7 µM (inactive) | 15.2 µM (inactive) | 19.1 µM (inactive) | 15.9 µM (inactive) | 13.5 µM (inactive) | 12.4 µM (inactive) | 37.8 µM (inactive) | 11 µM (inactive) | 15.3 µM (inactive) | 16.2 µM (inactive) | 14.8 µM (inactive) | 26.4 µM (inactive) | – | –
C=C(CO)CC(O)c1cc(OC)ccc1OC (stereo not given) | > 100 µM (inactive) | – | > 100 µM (inactive) | > 100 µM (inactive) | > 100 µM | > 100 µM (inactive) | > 100 µM (inactive) | > 100 µM (inactive) | > 100 µM (inactive) | > 100 µM (inactive) | > 100 µM (inactive) | > 100 µM (inactive) | > 100 µM (inactive) | > 100 µM (inactive) | > 100 µM (inactive) | > 100 µM (inactive) | > 100 µM (inactive) | > 100 µM (inactive) | – | –
O=C1NC2(C=Cc3c(ccc4ccccc34)O2)Oc2ccccc21 (stereo not given) | 19 µM (inactive) | – | 3.95 µM (inactive) | 9.51 µM (inactive) | 7.46 µM | 11.3 µM (inactive) | 28.1 µM (inactive) | 31 µM (inactive) | 28.1 µM (inactive) | 19.1 µM (inactive) | 26.9 µM (inactive) | 14.3 µM (inactive) | – | 17.4 µM (inactive) | 15 µM (inactive) | 1.76 µM (inactive) | 13.4 µM (inactive) | 21.5 µM (inactive) | – | –
CC(=O)OC[C@]1(O)CC[C@@]23CC1C[C@@H]2CCC1C(C)(C)CCC[C@@]13C (stereo not given in full) | 17.3 µM (inactive) | – | 10.1 µM (inactive) | 3.65 µM (inactive) | 15.8 µM | 13 µM (inactive) | 19.7 µM (inactive) | 13.9 µM (inactive) | 15.6 µM (inactive) | 15.9 µM (inactive) | 16.6 µM (inactive) | 7.11 µM (inactive) | 15.2 µM (inactive) | 12.2 µM (inactive) | 14 µM (inactive) | 16.1 µM (inactive) | 17.1 µM (inactive) | 13.4 µM (inactive) | – | –
CCc1ccccc1NC(=O)C(=O)C(C(=O)c1ccc(OC)cc1)c1ccc(OC)cc1 (stereo not given) | > 100 µM (inactive) | > 100 µM (inactive) | > 100 µM (inactive) | > 100 µM (inactive) | > 100 µM | > 100 µM (inactive) | > 100 µM (inactive) | > 100 µM (inactive) | > 100 µM (inactive) | > 100 µM (inactive) | > 100 µM (inactive) | – | > 100 µM (inactive) | > 100 µM (inactive) | > 100 µM (inactive) | > 100 µM (inactive) | > 100 µM (inactive) | > 100 µM (inactive) | – | –
COC(=O)OCC1OC(N2C(=O)NC(=O)C(Br)C2N=[N+]=[N-])CC1OC(=O)OC (stereo not given) | > 100 µM (inactive) | – | > 100 µM (inactive) | > 100 µM (inactive) | > 100 µM | > 100 µM (inactive) | > 100 µM (inactive) | > 100 µM (inactive) | > 100 µM (inactive) | > 100 µM (inactive) | > 100 µM (inactive) | > 100 µM (inactive) | > 100 µM (inactive) | > 100 µM (inactive) | > 100 µM (inactive) | > 100 µM (inactive) | > 100 µM (inactive) | > 100 µM (inactive) | – | –
CN1CCCC(C(=O)OCC(=O)C2(O)CCC3C4CCC5=CC(=O)CCC5(C)C4C(O)CC32C)C1 (stereo not given) | 4.2 µM (inactive) | 16.4 µM (inactive) | 4.9 µM (inactive) | – | 18.7 µM | 10.8 µM (inactive) | 23.4 µM (inactive) | 23.2 µM (inactive) | 17 µM (inactive) | 13.4 µM (inactive) | 15 µM (inactive) | 8.49 µM (inactive) | 16.3 µM (inactive) | 8.73 µM (inactive) | 4.29 µM (inactive) | 8.11 µM (inactive) | 17 µM (inactive) | 12.5 µM (inactive) | 4.32 µM (inactive) | 12.6 µM (inactive)
O=C(Nn1c(-c2ccccc2)nc2ccccc2c1=O)c1ccccc1O | 65.2 µM (inactive) | 71.6 µM (inactive) | 25.2 µM (inactive) | – | 29.4 µM | 61.2 µM (inactive) | 32.2 µM (inactive) | 51.1 µM (inactive) | 25.7 µM (inactive) | 30.7 µM (inactive) | 38.5 µM (inactive) | 28.2 µM (inactive) | 58.9 µM (inactive) | 37.2 µM (inactive) | 44.5 µM (inactive) | 36.7 µM (inactive) | 30.3 µM (inactive) | 75.9 µM (inactive) | 53.5 µM (inactive) | 49.4 µM (inactive)
O=P(O)(OCC(O)O)OCC(O)O | > 100 µM (inactive) | > 100 µM (inactive) | > 100 µM (inactive) | > 100 µM (inactive) | – | > 100 µM (inactive) | > 100 µM (inactive) | – | > 100 µM (inactive) | – | > 100 µM (inactive) | > 100 µM (inactive) | > 100 µM (inactive) | – | > 100 µM (inactive) | > 100 µM (inactive) | > 100 µM (inactive) | > 100 µM (inactive) | – | –
COc1ccc2c(c1)[n+]([O-])c(C(=O)C/C(=N/NC(=O)C[N+](C)(C)C)C(=O)Nc1cccc(C)c1C)c(C)[n+]2[O-] | > 100 µM (inactive) | > 100 µM (inactive) | – | > 100 µM (inactive) | > 100 µM | > 100 µM (inactive) | > 100 µM (inactive) | > 100 µM (inactive) | > 100 µM (inactive) | > 100 µM (inactive) | > 100 µM (inactive) | > 100 µM (inactive) | > 100 µM (inactive) | > 100 µM (inactive) | > 100 µM (inactive) | > 100 µM (inactive) | > 100 µM (inactive) | – | – | –
